# Results taken from ChEMBL document CHEMBL4342426, “Structure-activity relationship of 4-azaindole-2-piperidine derivatives as agents against Trypanosoma cruzi” (Bioorg Med Chem Lett, 2020).
# pIC50: −log10 of the molar value.
# Experiments:
# in vitro [1] = details: human, liver microsomes
# Description: Metabolic stability in human liver microsomes assessed as intrinsic clearance at 0.5 uM incubated for 30 mins by LC-MS/MS analysis
# Macrophage = assay: cells; details: Mus musculus, 72 h
# Description: (§1) Cytotoxicity against mouse peritoneal Macrophage cells assessed as reduction in cell viability incubated for 3 days by fluorimetry
# in vitro [2] = details: mouse, liver microsomes
# Description: Metabolic stability in mouse liver microsomes assessed as fraction unbound at 0.5 uM incubated for 30 mins by LC-MS/MS analysis
# Trypanosoma cruzi = assay: microbe, parasite or virus in culture; details: Tulahuen CL2, MRC-5 SV2, 168 h
# Description: Antitrypanosomal activity against Trypanosoma cruzi Tulahuen CL2 amastigotes infected in human MRC5 SV2 cells incubated for 7 days by chlorophenol red beta-D-galactopyranoside substrate based spectrophotometric assay
# in vitro [3] = details: human, MRC5 SV2 cells
# Description: (§2) Cytotoxicity against human MRC5 SV2 cells assessed as reduction in cell viability incubated for 3 days by fluorimetry
# in vitro [4] = details: mouse, peritoneal macrophages
# Description: as §1
# Trypanosoma brucei = assay: microbe, parasite or virus in culture; details: Squib 427, 72 h
# Description: Antitrypanosomal activity against Trypanosoma brucei Squib 427 assessed as reduction in parasite growth incubated for 72 hrs by resazurin dye based fluorimetric analysis
# in vitro [5] = details: PAMPA
# Description: Effective permeability of compound by PAMPA assay
# cells = details: Homo sapiens, MRC-5 SV2, 72 h
# Description: as §2
# [6] = system: Trypanosoma brucei rhodesiense; assay: microbe, parasite or virus in culture; details: STIB900, 72 h
# Description: Antiprotozoal activity against Trypanosoma brucei rhodesiense STIB900 trypomastigotes incubated for 72 hrs by resazurin dye based fluorimetric analysis
# in vitro [7] = details: mouse, liver microsomes; remark: listed apart in the source
# Description: Metabolic stability in mouse liver microsomes assessed as intrinsic clearance at 0.5 uM incubated for 30 mins by LC-MS/MS analysis
# in vitro [8] = details: human, MRC5 SV2 cells; remark: listed apart in the source
# Description: Selectivity index, ratio of IC50 for human MRC5 SV2 cells to IC50 for Trypanosoma cruzi Tulahuen CL2 amastigotes infected in human MRC5 SV2 cells
# Leishmania infantum = assay: microbe, parasite or virus in culture; details: for pIC50: MHOM/MA(BE)/67/ITMAP263, 120 h; for IC90: MHOM/MA(BE)/67/ITMAP263, in Mus musculus, 120 h
# Description: Antileishmanial activity against amastigote stage of Leishmania infantum MHOM/MA(BE)/67/ITMAP263 infected in mouse peritoneal macrophage assessed as parasite growth inhibition incubated for 5 days by Giemsa staining based assay
# physchem = details: buffer, pH 7.4
# Description: Lipophilicity, logD of compound at pH 7.4 by HPLC analysis
smiles,measurement,setting,value
CC(C)(O)c1cc(C(=O)N2CCCC(c3cc4ncccc4[nH]3)C2)on1 (stereo not drawn),"CLint scaled at 0.5 h, 0.5 µM",in vitro [1],< 37.8 mL/min/kg
same,"microsomal CLint at 0.5 h, 0.5 µM",in vitro [1],< 23 µL/min/mg
same,pIC50,Macrophage,4.19
same,"fraction unbound at 0.5 h, 0.5 µM",in vitro [2],0.661 to 0.839
same,pIC50,Trypanosoma cruzi,4.47
same,IC90,Trypanosoma cruzi,64 µM
same,IC90 at 72 h,in vitro [3],64 µM
same,IC90 at 72 h,in vitro [4],64 µM
same,pIC50,Trypanosoma brucei,4.19
same,IC90,Trypanosoma brucei,64 µM
same,Papp,in vitro [5],0.45 ×10⁻⁶ cm/s
same,pIC50,cells,4.19
same,pIC50,[6],4.19
same,IC90,[6],64 µM
same,"CLint scaled at 0.5 h, 0.5 µM",in vitro [7],< 88 mL/min/kg
same,"microsomal CLint at 0.5 h, 0.5 µM",in vitro [7],< 23 µL/min/mg
same,selectivity ratio,in vitro [8],1.9
same,pIC50,Leishmania infantum,4.19
same,IC90,Leishmania infantum,64 µM
same,logD,physchem,2.3
O=C(c1cc(C2CC2)no1)N1CCOC(c2cc3ncccc3[nH]2)C1 (stereo not drawn),"CLint scaled at 0.5 h, 0.5 µM",in vitro [1],< 27.8 mL/min/kg
same,"microsomal CLint at 0.5 h, 0.5 µM",in vitro [1],< 23 µL/min/mg
same,pIC50,Macrophage,4.19
same,"fraction unbound at 0.5 h, 0.5 µM",in vitro [2],0.896
same,pIC50,Trypanosoma cruzi,4.46
same,IC90,Trypanosoma cruzi,63.5 µM
same,IC90 at 72 h,in vitro [3],64 µM
same,IC90 at 72 h,in vitro [4],64 µM
same,pIC50,Trypanosoma brucei,4.19
same,IC90,Trypanosoma brucei,64 µM
same,Papp,in vitro [5],3.18 ×10⁻⁶ cm/s
same,pIC50,cells,4.19
same,pIC50,[6],4.19
same,IC90,[6],64 µM
same,"CLint scaled at 0.5 h, 0.5 µM",in vitro [7],279 mL/min/kg
same,"microsomal CLint at 0.5 h, 0.5 µM",in vitro [7],78.3 µL/min/mg
same,selectivity ratio,in vitro [8],1.85
same,pIC50,Leishmania infantum,4.19
same,IC90,Leishmania infantum,64 µM
same,logD,physchem,2.4
O=C(c1cccc(C(F)(F)F)n1)N1CCCC(c2cc3ncccc3[nH]2)C1 (stereo not drawn),"CLint scaled at 0.5 h, 0.5 µM",in vitro [1],38.3 to 210 mL/min/kg
same,"microsomal CLint at 0.5 h, 0.5 µM",in vitro [1],23 to 114 µL/min/mg
same,pIC50,Macrophage,4.19
same,"fraction unbound at 0.5 h, 0.5 µM",in vitro [2],0.584 to 0.649
same,pIC50,Trypanosoma cruzi,4.58 to 4.83
same,IC90,Trypanosoma cruzi,59.3 to 60.5 µM
same,IC90 at 72 h,in vitro [3],64 µM
same,IC90 at 72 h,in vitro [4],64 µM
same,pIC50,Trypanosoma brucei,4.19
same,IC90,Trypanosoma brucei,64 µM
same,Papp,in vitro [5],0.584 to 2.12 ×10⁻⁶ cm/s
same,pIC50,cells,4.19
same,pIC50,[6],4.19
same,IC90,[6],64 µM
same,"CLint scaled at 0.5 h, 0.5 µM",in vitro [7],315 to 1070 mL/min/kg
same,"microsomal CLint at 0.5 h, 0.5 µM",in vitro [7],64 to 196 µL/min/mg
same,selectivity ratio,in vitro [8],2.42 to 4.35
same,pIC50,Leishmania infantum,4.19
same,IC90,Leishmania infantum,64 µM
same,logD,physchem,2.94 to 3.02
O=C(c1cc(C(F)(F)F)no1)N1CCC(c2cc3ncccc3[nH]2)C1 (stereo not drawn),"CLint scaled at 0.5 h, 0.5 µM",in vitro [1],95.8 mL/min/kg
same,"microsomal CLint at 0.5 h, 0.5 µM",in vitro [1],58.2 µL/min/mg
same,pIC50,Macrophage,4.19
same,"fraction unbound at 0.5 h, 0.5 µM",in vitro [2],0.656
same,pIC50,Trypanosoma cruzi,5.08
same,IC90,Trypanosoma cruzi,64 µM
same,IC90 at 72 h,in vitro [3],64 µM
same,IC90 at 72 h,in vitro [4],64 µM
same,pIC50,Trypanosoma brucei,4.19
same,IC90,Trypanosoma brucei,64 µM
same,Papp,in vitro [5],2.86 ×10⁻⁶ cm/s
same,pIC50,cells,4.19
same,pIC50,[6],4.19
same,IC90,[6],64 µM
same,"CLint scaled at 0.5 h, 0.5 µM",in vitro [7],5410 mL/min/kg
same,"microsomal CLint at 0.5 h, 0.5 µM",in vitro [7],1110 µL/min/mg
same,selectivity ratio,in vitro [8],7.25
same,pIC50,Leishmania infantum,4.19
same,IC90,Leishmania infantum,64 µM
same,logD,physchem,3.12
CN(CCc1cc2ncccc2[nH]1)C(=O)c1ccccc1,"CLint scaled at 0.5 h, 0.5 µM",in vitro [1],< 30.2 mL/min/kg
same,"microsomal CLint at 0.5 h, 0.5 µM",in vitro [1],< 23 µL/min/mg
same,pIC50,Macrophage,4.19
same,"fraction unbound at 0.5 h, 0.5 µM",in vitro [2],0.83
same,pIC50,Trypanosoma cruzi,4.44
same,IC90,Trypanosoma cruzi,64 µM
same,IC90 at 72 h,in vitro [3],64 µM
same,IC90 at 72 h,in vitro [4],64 µM
same,pIC50,Trypanosoma brucei,4.19
same,IC90,Trypanosoma brucei,64 µM
same,Papp,in vitro [5],2.85 ×10⁻⁶ cm/s
same,pIC50,cells,4.19
same,pIC50,[6],4.19
same,IC90,[6],64 µM
same,"CLint scaled at 0.5 h, 0.5 µM",in vitro [7],1470 mL/min/kg
same,"microsomal CLint at 0.5 h, 0.5 µM",in vitro [7],382 µL/min/mg
same,selectivity ratio,in vitro [8],1.75
same,pIC50,Leishmania infantum,4.19
same,IC90,Leishmania infantum,64 µM
same,logD,physchem,1.88
COc1cc(C(=O)N2CCCC(c3cc4ncccc4[nH]3)C2)on1 (stereo not drawn),"CLint scaled at 0.5 h, 0.5 µM",in vitro [1],57.8 mL/min/kg
same,"microsomal CLint at 0.5 h, 0.5 µM",in vitro [1],36.9 µL/min/mg
same,pIC50,Macrophage,4.19
same,"fraction unbound at 0.5 h, 0.5 µM",in vitro [2],0.688
same,pIC50,Trypanosoma cruzi,5.09
same,IC90,Trypanosoma cruzi,15.2 µM
same,IC90 at 72 h,in vitro [3],64 µM
same,IC90 at 72 h,in vitro [4],64 µM
same,pIC50,Trypanosoma brucei,4.19
same,IC90,Trypanosoma brucei,64 µM
same,Papp,in vitro [5],6.36 ×10⁻⁶ cm/s
same,pIC50,cells,4.19
same,pIC50,[6],4.19
same,IC90,[6],64 µM
same,"CLint scaled at 0.5 h, 0.5 µM",in vitro [7],601 mL/min/kg
same,"microsomal CLint at 0.5 h, 0.5 µM",in vitro [7],129 µL/min/mg
same,selectivity ratio,in vitro [8],7.9
same,pIC50,Leishmania infantum,4.19
same,IC90,Leishmania infantum,64 µM
same,logD,physchem,2.44
CCN(C(=O)CCc1nc2ncccc2[nH]1)c1ccccc1,"CLint scaled at 0.5 h, 0.5 µM",in vitro [1],49.3 mL/min/kg
same,"microsomal CLint at 0.5 h, 0.5 µM",in vitro [1],35.1 µL/min/mg
same,pIC50,Macrophage,4.19
same,"fraction unbound at 0.5 h, 0.5 µM",in vitro [2],0.767
same,pIC50,Trypanosoma cruzi,4.31
same,IC90,Trypanosoma cruzi,64 µM
same,IC90 at 72 h,in vitro [3],64 µM
same,IC90 at 72 h,in vitro [4],64 µM
same,pIC50,Trypanosoma brucei,4.19
same,IC90,Trypanosoma brucei,64 µM
same,Papp,in vitro [5],9.64 ×10⁻⁶ cm/s
same,pIC50,cells,4.19
same,pIC50,[6],4.19
same,IC90,[6],64 µM
same,"CLint scaled at 0.5 h, 0.5 µM",in vitro [7],426 mL/min/kg
same,"microsomal CLint at 0.5 h, 0.5 µM",in vitro [7],102 µL/min/mg
same,selectivity ratio,in vitro [8],1.3
same,pIC50,Leishmania infantum,4.19
same,IC90,Leishmania infantum,64 µM
same,logD,physchem,2.23
O=C(c1cc(C(F)(F)F)no1)N1CCOC(c2cc3ncccc3[nH]2)C1 (stereo not drawn),"CLint scaled at 0.5 h, 0.5 µM",in vitro [1],118 mL/min/kg
same,"microsomal CLint at 0.5 h, 0.5 µM",in vitro [1],89.8 µL/min/mg
same,pIC50,Macrophage,4.19
same,"fraction unbound at 0.5 h, 0.5 µM",in vitro [2],0.825
same,pIC50,Trypanosoma cruzi,4.45
same,IC90,Trypanosoma cruzi,64 µM
same,IC90 at 72 h,in vitro [3],64 µM
same,IC90 at 72 h,in vitro [4],64 µM
same,pIC50,Trypanosoma brucei,4.19
same,IC90,Trypanosoma brucei,64 µM
same,Papp,in vitro [5],4.3 ×10⁻⁶ cm/s
same,pIC50,cells,4.19
same,pIC50,[6],4.19
same,IC90,[6],64 µM
same,"CLint scaled at 0.5 h, 0.5 µM",in vitro [7],529 mL/min/kg
same,"microsomal CLint at 0.5 h, 0.5 µM",in vitro [7],137 µL/min/mg
same,selectivity ratio,in vitro [8],1.8
same,pIC50,Leishmania infantum,4.19
same,IC90,Leishmania infantum,64 µM
same,logD,physchem,2.89
O=C(c1ccccc1)N1CCC(c2cc3ncccc3[nH]2)CC1,"CLint scaled at 0.5 h, 0.5 µM",in vitro [1],< 33.3 mL/min/kg
same,"microsomal CLint at 0.5 h, 0.5 µM",in vitro [1],< 23 µL/min/mg
same,pIC50,Macrophage,4.19
same,"fraction unbound at 0.5 h, 0.5 µM",in vitro [2],0.738
same,pIC50,Trypanosoma cruzi,4.65
same,IC90,Trypanosoma cruzi,56.1 µM
same,IC90 at 72 h,in vitro [3],64 µM
same,IC90 at 72 h,in vitro [4],64 µM
same,pIC50,Trypanosoma brucei,4.19
same,IC90,Trypanosoma brucei,64 µM
same,Papp,in vitro [5],0.94 ×10⁻⁶ cm/s
same,pIC50,cells,4.19
same,pIC50,[6],4.19
same,IC90,[6],64 µM
same,"CLint scaled at 0.5 h, 0.5 µM",in vitro [7],4520 mL/min/kg
same,"microsomal CLint at 0.5 h, 0.5 µM",in vitro [7],1040 µL/min/mg
same,selectivity ratio,in vitro [8],2.86
same,pIC50,Leishmania infantum,4.19
same,IC90,Leishmania infantum,64 µM
same,logD,physchem,2.68
O=C(Cc1ccccc1)N1CCN(c2nc3ccccc3s2)CC1,"CLint scaled at 0.5 h, 0.5 µM",in vitro [1],210 mL/min/kg
same,"microsomal CLint at 0.5 h, 0.5 µM",in vitro [1],126 µL/min/mg
same,pIC50,Macrophage,4.19
same,"fraction unbound at 0.5 h, 0.5 µM",in vitro [2],0.647
same,pIC50,Trypanosoma cruzi,4.40
same,IC90,Trypanosoma cruzi,62.9 µM
same,IC90 at 72 h,in vitro [3],64 µM
same,IC90 at 72 h,in vitro [4],64 µM
same,pIC50,Trypanosoma brucei,4.19
same,IC90,Trypanosoma brucei,64 µM
same,Papp,in vitro [5],15.3 ×10⁻⁶ cm/s
same,pIC50,cells,4.19
same,pIC50,[6],4.25
same,IC90,[6],64 µM
same,selectivity ratio,in vitro [8],1.59
same,pIC50,Leishmania infantum,4.19
same,IC90,Leishmania infantum,64 µM
same,logD,physchem,3.65
